Common to all, as to format: functional
For test [1], the system named is Botryosphaeria berengeriana. Kind of test: Antifungal activity against Physalospora piricola at 50 ug/ml.
For test [2], the system named is Bipolaris maydis. Kind of test: Antifungal activity against Bipolaris maydis at 50 ug/ml.
For test [3], the system named is Thanatephorus cucumeris. Kind of test: Antifungal activity against Rhizoctonia solani at 50 ug/ml.
In test [4] the test system is Botrytis cinerea. The test can be described thus: Antifungal activity against Botrytis cinereapers at 50 ug/ml.
The test system of test [5] is Fusarium graminearum. Kind of test: Antifungal activity against Gibberella zeae at 50 ug/ml.

Regarding `CO/N=C(/C(=O)OC)c1ccccc1CSc1nnc(-c2ccccc2F)o1`, the inhibition at 50 µg/mL in test [1] was found to be 100%; in test [2], 92.3%; in test [3], 92.6%; in test [4], 97.6%; in test [5], 98%.
The like results for `CO/N=C(/C(=O)OC)c1ccccc1CSc1nnc(-c2ccc(Cl)cc2Cl)o1` were, in that order, 88.9%, 85.7%, 92.6%, 98.8% and 74.3%.
In the same order, the values of `CO/N=C(/C(=O)OC)c1ccccc1CSc1nnc(-c2ccc(OC)cc2)o1` are 93.8%, 92.5%, 91.8%, 94.2% and 85.7%.
The like results for `CO/N=C(/C(=O)OC)c1ccccc1CSc1nnc(-c2cc(Cl)ccc2Cl)o1` were, in that order, 100%, 82.7%, 97%, 88.5% and 90.6%.
Consider `CO/N=C(/C(=O)OC)c1ccccc1CSc1nnc(-c2ccc(OCc3ccccc3)cc2)o1`, for which the inhibition at 50 µg/mL in test [1] is 96.9%; in test [2] it was 95%; in test [3], 98%; in test [4] it was 90.6%; in test [5] it was 89.2%.
In the same order, the values of `CO/N=C(/C(=O)OC)c1ccccc1CSc1nnc(-c2ccccc2)o1` are 94.9%, 88%, 92.4%, 97.6% and 79.4%.
On to `CO/N=C(/C(=O)OC)c1ccccc1CSc1nnc(-c2ccccc2I)o1`, for which the inhibition at 50 µg/mL in test [1] was 96.3%; in test [2], 86.4%; in test [3], 90.2%; in test [4] it was 96.2%; in test [5], 98.4%.
As to `CO/N=C(/C(=O)OC)c1ccccc1COc1ccccc1C` [KRESOXIM-METHYL], the inhibition at 50 µg/mL in test [1] worked out at 98.5%; in test [2] it was 90.6%; in test [3], 66.1%; in test [4], 97.2%; in test [5], 96.8%.
The like results for `CO/N=C(/C(=O)OC)c1ccccc1CSc1nnc(-c2ccc(Br)cc2F)o1` were, in that order, 100%, 92.9%, 97.9%, 100% and 85.7%.
In the same order, the values of `CO/N=C(/C(=O)OC)c1ccccc1CSc1nnc(-c2cccc(F)c2F)o1` are 100%, 96.4%, 100%, 100% and 98.6%.
In the same order, the values of `CO/N=C(/C(=O)OC)c1ccccc1CSc1nnc(-c2ccc(F)cc2)o1` are 100%, 91.7%, 97.9%, 100% and 98.6%.
As for `CO/N=C(/C(=O)OC)c1ccccc1CSc1nnc(-c2ccc([N+](=O)[O-])cc2)o1`, the inhibition at 50 µg/mL in test [1] came out at 96.3%; in test [2], 86.4%; in test [3], 85.9%; in test [4], 88.5%; in test [5], 92.5%.
For `CO/N=C(/C(=O)OC)c1ccccc1CSc1nnc(-c2cc(F)c(Cl)cc2Cl)o1`, the inhibition at 50 µg/mL was 100% in test [1]; 81.6% in test [2]; 97.8% in test [3]; 98.8% in test [4]; 88.6% in test [5].
In the same order, the values of `CO/N=C(/C(=O)OC)c1ccccc1CSc1nnc(-c2cccc(Cl)c2)o1` are 92.6%, 90.9%, 94.4%, 85.4% and 96.9%.
For the compound `CO/N=C(/C(=O)OC)c1ccccc1CSc1nnc(-c2cccc(Cl)c2Cl)o1`, the inhibition at 50 µg/mL in test [1] amounted to 96.7%; in test [2], 84%; in test [3], 91.6%; in test [4] it was 83.3%; in test [5], 84.3%.
In the case of `CO/N=C(/C(=O)OC)c1ccccc1CSc1nnc(-c2ccc(C(F)(F)F)cc2)o1`, the inhibition at 50 µg/mL in test [1] was found to be 100%; in test [2] it was 81.8%; in test [3] it was 95.6%; in test [4], 84.6%; in test [5], 93.8%.

A word on the inhibition: it is the change of the read-out against control, counted positive when it falls.
